Values joined by “and” are separate entries in the source; they are usually repeats but may differ in a detail not shown here. Equal entries are not always repeated.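 A five-concentration, 48-hour dose response in 96-well plates underlies each endpoint, interpolated linearly between surrounding concentrations. Here, GI50 denotes the concentration required for 50% inhibition of growth.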 Active and inactive are the calls of the source. Cut-off read from the data, not from the text of the source: active = GI50 up to about 1.1 µM and inactive = higher.
Columns and labels:
Experiment in all cases: NCI tumour cell line growth inhibition, 48 h
[1] = test system: SK-OV-3
[2] = test system: SF-295
[3] = test system: T47D
[4] = test system: BT-549
[5] = test system: RPMI-8226
[6] = test system: NCI/ADR-RES
[7] = test system: SNB-19
[8] = test system: HCC 2998
[9] = test system: SN12C
[10] = test system: OVCAR-4
[11] = test system: MDA-MB-435
[12] = test system: A549
[13] = test system: Malme-3M
[14] = test system: SK-MEL-5
[15] = test system: SK-MEL-28
[16] = test system: MCF7
[17] = test system: M14
[18] = test system: CAKI-1
[19] = test system: MDA-N
[20] = test system: HOP-92
[21] = test system: NCI-H460
[22] = test system: HCT-15
[23] = test system: NCI-H522
[24] = test system: OVCAR-5
[25] = test system: KM12
[26] = test system: SK-MEL-2
[27] = test system: OVCAR-3
[28] = test system: HCT-116
[29] = test system: UO-31
[30] = test system: K562
[31] = test system: 786-0
[32] = test system: MDA-MB-231
[33] = test system: ACHN
[34] = test system: A498
[35] = test system: SNB-75
[36] = test system: HOP-62
[37] = test system: UACC-257
[38] = test system: TK-10
[39] = test system: SF-268
[40] = test system: U-251
[41] = test system: COLO 205
[42] = test system: NCI-H226
[43] = test system: UACC-62
[44] = test system: PC-3
[45] = test system: EKVX
[46] = test system: NCI-H23
[47] = test system: DU-145
[48] = test system: HT-29
[49] = test system: SR
[50] = test system: SF-539
[51] = test system: SW-620

Measured: GI50

COC(=O)c1cc(C(=O)OC)cc(-c2ccc3c(c2)-c2nc4c(c(-c5ccc(OC)cc5)c2CC3)CCc2ccc(-c3cc(C(=O)OC)cc(C(=O)OC)c3)cc2-4)c1
> 100 µM: [22]
inactive: [1] > 100 µM | [2] > 100 µM | [3] > 100 µM | [4] > 100 µM | [5] > 100 µM | [6] > 100 µM | [7] > 100 µM | [8] > 100 µM | [9] > 100 µM | [10] > 100 µM | [11] > 100 µM | [12] > 100 µM | [13] > 100 µM | [14] > 100 µM | [15] > 100 µM | [16] > 100 µM | [17] > 100 µM | [18] > 100 µM | [19] > 100 µM | [20] > 100 µM | [21] > 100 µM | [23] > 100 µM | [24] 16 µM | [25] > 100 µM | [26] > 100 µM | [27] > 100 µM | [28] > 100 µM | [29] > 100 µM | [31] > 100 µM | [32] > 100 µM | [33] > 100 µM | [34] > 100 µM | [35] > 100 µM | [36] > 100 µM | [37] > 100 µM | [38] > 100 µM | [39] > 100 µM | [40] > 100 µM | [41] > 100 µM | [42] > 100 µM | [43] > 100 µM | [44] > 100 µM | [45] 16.9 µM | [46] > 100 µM | [47] > 100 µM
active: [30] 61 nM

C#CC1(O)C(COP(=O)(O)OC(COCCCCCCCCCCCCCCCCCC)COP(=O)(O)OCC2OC(n3cc(F)c(=O)[nH]c3=O)CC2O)OC(n2ccc(N)nc2=O)C1O (configuration not stated)
1.04 µM (active) and 1.93 µM (inactive): [27]
inactive: [1] 1.32 µM and 2.43 µM | [8] 1.26 µM | [37] 1.15 µM and 1.92 µM
active: [48] 361 nM and 313 nM | [4] 752 nM and 466 nM | [5] 26.2 nM and < 16.3 nM | [6] 209 nM and 265 nM | [7] 152 nM and 277 nM | [9] 0.0818 µM | [11] 514 nM and 376 nM | [12] < 28.8 nM and 29.7 nM | [49] < 13.8 nM and < 15.7 nM | [14] 621 nM and 467 nM | [50] < 21.3 nM and < 23.3 nM | [16] < 24.7 nM and < 18.3 nM | [51] 114 nM and 91.8 nM | [18] 48.5 nM and 54.8 nM | [19] 418 nM and 293 nM | [21] < 21.3 nM and < 13.9 nM | [25] 454 nM and 252 nM | [30] < 31.3 nM and 27.5 nM | [32] 1.1 µM and 731 nM | [33] < 36.1 nM and 59.2 nM | [36] 434 nM and 399 nM | [38] 200 nM and 124 nM | [39] < 27.2 nM and 48.8 nM | [41] 244 nM and 211 nM | [42] 471 nM and 299 nM | [43] 546 nM and 277 nM
